Reference: US20080109040A1, “METHOD OF TREATING ARRHYTHMIAS” (priority 2002, published 2008)
Entries after “also recorded” stand apart in the source; their conditions may differ.

Molecular target: T1, slowly activating component of the delayed rectifier current (IKs) (Canis lupus familiaris, UniProt A0A8I3N8W8)
T1 construct: Myocytes were isolated by enzymatic dissociation from a wedge-shaped section of the left ventricular free wall; endogenous in cells; host or cells: isolated canine left ventricular myocytes
T1 sequence (A0A8I3N8W8 1-676): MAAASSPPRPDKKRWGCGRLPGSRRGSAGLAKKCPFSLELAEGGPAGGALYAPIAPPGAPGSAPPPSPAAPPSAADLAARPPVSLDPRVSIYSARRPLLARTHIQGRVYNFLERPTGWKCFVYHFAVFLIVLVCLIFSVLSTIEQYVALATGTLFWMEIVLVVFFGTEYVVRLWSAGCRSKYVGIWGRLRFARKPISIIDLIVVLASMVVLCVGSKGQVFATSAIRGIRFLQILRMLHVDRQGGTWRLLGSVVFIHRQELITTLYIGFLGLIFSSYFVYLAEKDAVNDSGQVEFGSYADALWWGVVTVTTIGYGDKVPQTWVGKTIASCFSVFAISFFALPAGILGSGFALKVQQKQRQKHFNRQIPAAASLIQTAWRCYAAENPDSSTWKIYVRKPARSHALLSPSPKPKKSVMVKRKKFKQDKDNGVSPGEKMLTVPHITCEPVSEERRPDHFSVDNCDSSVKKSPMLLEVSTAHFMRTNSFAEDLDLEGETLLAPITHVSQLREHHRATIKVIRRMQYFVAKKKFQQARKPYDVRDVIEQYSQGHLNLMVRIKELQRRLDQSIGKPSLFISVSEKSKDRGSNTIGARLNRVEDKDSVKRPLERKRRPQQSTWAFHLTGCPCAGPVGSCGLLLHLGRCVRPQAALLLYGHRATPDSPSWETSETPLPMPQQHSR
Assay: Whole cell voltage clamp of IKs tail current in isolated canine left ventricular myocytes
Type: cell-based
Method: Myocytes were isolated by enzymatic dissociation from a wedge-shaped section of the left ventricular free wall supplied by the left circumflex coronary artery. Cells from the epicardial and midmyocardial regions of the left ventricle were used in this study.
Inward rectifier potassium current (IK), slow delayed rectifier potassium current (IKs), and rapid delayed rectifier potassium current (IKr) were recorded at 37° C. using conventional whole cell voltage clamp configuration.
IK1 was measured using an external solution containing 3 μM ouabain and 5 μM nifedipine to block the sodium-potassium pump and L-type calcium current (ICa,L), respectively. […] 5 μM nifedipine was present in the external solution when IKr was being recorded.
Isolated myocytes were placed in a temperature controlled 0.5 ml chamber (Medical Systems, Greenvale, N.Y.) on the stage of an inverted microscope and superfused at a rate of 2 ml/min. An eight-barrel quartz micromanifold (ALA Scientific Instruments Inc., Westbury, N.Y.) placed 100 μm from the cell was used to apply ranolazine at concentrations of (in μM): 0.1, 0.5, 1.0, 5.0, 10 and 100.0. An Axopatch 1D amplifier (Axon Instruments, Foster City, Calif.) was operated in voltage clamp mode to record currents. […]

COc1ccccc1OCC(O)CN1CCN(CC(=O)Nc2c(C)cccc2C)CC1 (racemic) [ranolazine, N-(2,6-dimethylphenyl)-4-[2-hydroxy-3-(2-methoxyphenoxy)propyl]-1-piperazineacetamide]
Block of IKs tail current (ranolazine 100 μM, reversed on washout): largely eliminated the tail current; also recorded: almost completely blocked | IC50 (read-out: IC50 for inhibition of IKs tail current): 13.4 µM
